Each structure is given as a SMILES string. Structures can show the parent of a compound that is named as a salt. Where two headings read alike, the source gives them in different places.

What all share (format): biochemical
In one experiment the target is Tyk2 (Homo sapiens (Human), UniProt P29597). The experiment can be described thus: Enzyme assay (Assay Example^a 1), Tyk2. Particulars: ATP 100 μM.
The target of another experiment is JAK2 (Homo sapiens (Human), UniProt O60674). Kind of experiment: Enzyme assay (Assay Example^a 1), JAK2.
A further experiment addresses JAK3 (Homo sapiens (Human), UniProt P52333). Kind of experiment: Enzyme assay (Assay Example^a 1), JAK3. Particulars: ATP 100 μM.
A further experiment addresses JAK1 (Homo sapiens (Human), UniProt P23458). Kind of experiment: Enzyme assay (Assay Example^a 1), JAK1. The conditions noted are these: ATP 100 μM.

Chain of JAK3 (P52333 whole entry): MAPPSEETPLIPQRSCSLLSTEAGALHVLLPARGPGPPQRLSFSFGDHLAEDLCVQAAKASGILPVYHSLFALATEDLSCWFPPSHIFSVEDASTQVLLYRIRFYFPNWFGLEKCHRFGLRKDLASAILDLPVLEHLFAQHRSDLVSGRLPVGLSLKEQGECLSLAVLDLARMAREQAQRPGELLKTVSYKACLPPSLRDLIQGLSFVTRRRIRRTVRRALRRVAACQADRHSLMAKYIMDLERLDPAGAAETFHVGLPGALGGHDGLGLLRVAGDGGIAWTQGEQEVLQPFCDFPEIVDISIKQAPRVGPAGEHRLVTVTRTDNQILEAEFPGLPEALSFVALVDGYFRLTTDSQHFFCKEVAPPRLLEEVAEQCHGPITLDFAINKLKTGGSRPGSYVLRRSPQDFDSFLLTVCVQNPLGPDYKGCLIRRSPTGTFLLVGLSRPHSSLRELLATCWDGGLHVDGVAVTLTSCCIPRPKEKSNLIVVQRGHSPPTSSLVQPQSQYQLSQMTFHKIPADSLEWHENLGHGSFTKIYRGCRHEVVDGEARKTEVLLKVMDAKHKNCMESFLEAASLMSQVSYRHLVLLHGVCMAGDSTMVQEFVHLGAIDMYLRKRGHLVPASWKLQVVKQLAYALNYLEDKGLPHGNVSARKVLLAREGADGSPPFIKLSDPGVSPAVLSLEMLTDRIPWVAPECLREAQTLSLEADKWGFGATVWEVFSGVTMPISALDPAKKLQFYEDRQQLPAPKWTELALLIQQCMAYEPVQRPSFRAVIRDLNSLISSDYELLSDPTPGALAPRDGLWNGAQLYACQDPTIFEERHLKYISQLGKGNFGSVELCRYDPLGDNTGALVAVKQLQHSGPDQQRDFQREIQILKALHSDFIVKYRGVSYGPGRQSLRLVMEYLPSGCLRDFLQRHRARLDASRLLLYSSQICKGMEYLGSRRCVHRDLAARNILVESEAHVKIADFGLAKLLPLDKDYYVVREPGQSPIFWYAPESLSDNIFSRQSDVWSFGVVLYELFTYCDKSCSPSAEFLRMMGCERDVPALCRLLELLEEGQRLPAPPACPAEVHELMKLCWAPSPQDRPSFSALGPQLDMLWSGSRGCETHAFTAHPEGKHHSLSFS
Chain of Tyk2 (P29597 whole entry): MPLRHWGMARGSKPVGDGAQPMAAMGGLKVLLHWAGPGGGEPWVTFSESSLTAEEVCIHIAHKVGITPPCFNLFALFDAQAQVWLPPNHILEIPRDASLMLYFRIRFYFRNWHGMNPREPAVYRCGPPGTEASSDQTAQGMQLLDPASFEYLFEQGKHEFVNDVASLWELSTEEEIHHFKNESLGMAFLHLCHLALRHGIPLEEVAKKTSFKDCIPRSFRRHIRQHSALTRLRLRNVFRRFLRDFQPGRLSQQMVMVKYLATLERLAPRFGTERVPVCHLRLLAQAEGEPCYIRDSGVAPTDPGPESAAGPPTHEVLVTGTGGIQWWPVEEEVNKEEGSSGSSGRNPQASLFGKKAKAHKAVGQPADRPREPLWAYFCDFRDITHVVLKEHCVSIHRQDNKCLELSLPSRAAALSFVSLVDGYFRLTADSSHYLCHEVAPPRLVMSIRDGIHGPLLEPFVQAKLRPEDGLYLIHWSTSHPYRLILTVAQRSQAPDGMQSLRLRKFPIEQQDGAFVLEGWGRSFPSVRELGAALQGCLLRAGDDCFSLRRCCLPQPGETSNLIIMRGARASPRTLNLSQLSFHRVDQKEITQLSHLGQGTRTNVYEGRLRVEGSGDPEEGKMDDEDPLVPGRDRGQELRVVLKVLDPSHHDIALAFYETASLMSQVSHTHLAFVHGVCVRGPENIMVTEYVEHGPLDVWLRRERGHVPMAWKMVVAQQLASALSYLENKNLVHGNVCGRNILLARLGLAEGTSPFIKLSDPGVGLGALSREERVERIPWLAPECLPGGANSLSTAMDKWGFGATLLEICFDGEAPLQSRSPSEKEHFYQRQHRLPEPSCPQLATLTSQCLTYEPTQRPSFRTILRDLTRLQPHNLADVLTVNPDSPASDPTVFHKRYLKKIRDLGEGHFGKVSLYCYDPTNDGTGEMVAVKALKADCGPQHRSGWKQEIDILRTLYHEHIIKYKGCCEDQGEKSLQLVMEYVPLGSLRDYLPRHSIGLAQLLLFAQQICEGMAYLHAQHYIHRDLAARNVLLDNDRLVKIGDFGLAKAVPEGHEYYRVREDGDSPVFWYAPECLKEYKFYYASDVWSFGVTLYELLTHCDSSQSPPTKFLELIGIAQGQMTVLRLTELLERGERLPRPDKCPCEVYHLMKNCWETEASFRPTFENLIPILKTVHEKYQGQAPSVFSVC

As usually defined, the IC50 is the midpoint of a concentration-inhibition curve. Regarding `C[C@H](O)CNC[C@H]1CC[C@H](c2nnn3cnc4[nH]ccc4c23)CC1` [compound 184, (S)-1-({[trans-4-(7H-pyrrolo[3,2-e][1,2,3]triazolo[1,5-c]pyrimidin-1-yl)cyclohexyl]methyl}amino)propan-2-ol], the half-maximal inhibitory concentration (IC50) was found to be 0.087 µM at Tyk2 (Table^a 154); 0.042 µM on JAK2 (ATP 100 μM, Table^a 154); 0.58 µM against JAK3 (Table^a 154); 0.0035 µM on JAK1 (Table^a 154).
`C[C@@H](O)CNC[C@H]1CC[C@H](c2nnn3cnc4[nH]ccc4c23)CC1` [compound 185, (R)-1-({[trans-4-(7H-pyrrolo[3,2-e][1,2,3]triazolo[1,5-c]pyrimidin-1-yl)cyclohexyl]methyl}amino)propan-2-ol]: the IC50 on Tyk2 (Table^a 154) worked out at 0.13 µM; on JAK2 (ATP 100 μM, Table^a 154), 0.051 µM; on JAK3 (Table^a 154) it was 0.32 µM; on JAK1 (Table^a 154), 0.0081 µM.
In the same order, the values of `N#C[C@H]1CCN(C[C@H]2CC[C@H](c3nnn4cnc5[nH]ccc5c34)CC2)C1` [compound 187, (S)-1-{[trans-4-(7H-pyrrolo[3,2-e][1,2,3]triazolo[1,5-c]pyrimidin-1-yl)cyclohexyl]methyl}pyrrolidine-3-carbonitrile] are 0.36 µM, 0.038 µM, 0.37 µM and 0.0076 µM.
In the same order, the values of `CS(=O)(=O)c1ccc2c(c1)CCN2C[C@H]1CC[C@H](c2nnn3cnc4[nH]ccc4c23)CC1` [compound 189, 1-(trans-4-{[5-(methylsulfonyl)indolin-1-yl]methyl}cyclohexyl)-7H-pyrrolo[3,2-e][1,2,3]triazolo[1,5-c]pyrimidine] are 0.38 µM, 0.038 µM, 0.61 µM and 0.011 µM.
In the same order, the values of `O=C1NCCN1CCNC[C@H]1CC[C@H](c2nnn3cnc4[nH]ccc4c23)CC1` [compound 191, 1-[2-({[trans-4-(7H-pyrrolo[3,2-e][1,2,3]triazolo[1,5-c]pyrimidin-1-yl)cyclohexyl]methyl}amino)ethyl]imidazolidin-2-one] are 0.18 µM, 0.084 µM, 0.92 µM and 0.01 µM.
For the compound `c1nc(CCNC[C@H]2CC[C@H](c3nnn4cnc5[nH]ccc5c34)CC2)c[nH]1` [compound 192, N-{[trans-4-(7H-pyrrolo[3,2-e][1,2,3]triazolo[1,5-c]pyrimidin-1-yl)cyclohexyl]methyl}-2-(1H-imidazol-4-yl)ethanamine hydrochloride], the IC50 was 0.1 µM on Tyk2 (Table^a 154); 0.038 µM at JAK2 (ATP 100 μM, Table^a 154); 0.32 µM against JAK3 (Table^a 154); 0.0039 µM against JAK1 (Table^a 154).
In the same order, the values of `c1ccc(CNC[C@H]2CC[C@H](c3nnn4cnc5[nH]ccc5c34)CC2)cc1` [compound 193, 1-[trans-4-(7H-pyrrolo[3,2-e][1,2,3]triazolo[1,5-c]pyrimidin-1-yl)cyclohexyl]-N-benzylmethanamine] are 0.0055 µM, 0.041 µM, 0.28 µM and 0.0053 µM.
In the same order, the values of `Clc1ccc(NC2CCC(c3nnn4cnc5[nH]ccc5c34)CC2)cc1` (stereo not drawn) [compound 205, N-[4-(7H-Pyrrolo[3,2-e]r[1,2,3]triazolo[1,5-c]pyrimidin-1-yl)cyclohexyl]-4-chloroaniline] are 0.75 µM, 0.25 µM, > 1 µM and 0.026 µM.
The corresponding values for `O=C(Nc1ccc(F)cc1)[C@H]1CC[C@H](c2nnn3cnc4[nH]ccc4c23)CC1` [compound 206, trans-N-(4-Fluorophenyl)-4-(7H-pyrrolo[3,2-e][1,2,3]triazolo[1,5-c]pyrimidin-1-yl)cyclohexanecarboxamide] are > 1 µM, > 1 µM, > 1 µM and 0.27 µM.
On to `O=C(NCc1ccc(F)cc1)[C@H]1CC[C@H](c2nnn3cnc4[nH]ccc4c23)CC1` [compound 207, trans-N-(4-fluorobenzyl)-4-(7H-pyrrolo[3,2-e][1,2,3]triazolo[1,5-c]pyrimidin-1-yl)cyclohexanecarboxamide], for which the IC50 was > 1 µM on Tyk2 (Table^a 154); 0.055 µM against JAK2 (ATP 100 μM, Table^a 154); > 1 µM at JAK3 (Table^a 154); 0.009 µM at JAK1 (Table^a 154).
With `O=C(NCCc1ccc(F)cc1)[C@H]1CC[C@H](c2nnn3cnc4[nH]ccc4c23)CC1` [compound 208, trans-N-(4-fluorophenethyl)-4-(7H-pyrrolo[3,2-e][1,2,3]triazolo[1,5-c]pyrimidin-1-yl)cyclohexanecarboxamide], the IC50 at Tyk2 (Table^a 154) is 0.37 µM; against JAK2 (ATP 100 μM, Table^a 154), 0.033 µM; at JAK3 (Table^a 154), 0.36 µM; at JAK1 (Table^a 154), 0.0028 µM.
In the same order, the values of `O=C([C@H]1CC[C@H](c2nnn3cnc4[nH]ccc4c23)CC1)N1CC[C@H](F)C1` [compound 209, [trans-4-(7H-pyrrolo[3,2-e][1,2,3]triazolo[1,5-c]pyrimidin-1-yl)cyclohexyl][(S)-3-fluoropyrrolidin-1-yl]methanone] are > 1 µM, 0.42 µM, > 1 µM and 0.061 µM.
On to `N#CCOc1ccc(CN2CCC(c3nnn4cnc5[nH]ccc5c34)CC2)cc1` [compound 213, 2-(4-{[4-(7H-pyrrolo[3,2-e][1,2,3]triazolo[1,5-c]pyrimidin-1-yl)piperidin-1-yl]methyl}phenoxy)acetonitrile], for which the IC50 at Tyk2 is > 1 µM; against JAK2 (ATP 100 μM), 0.19 µM; against JAK3, > 1 µM; on JAK1 it was 0.024 µM.
Take `Clc1ccc(CN2CCC(c3nnn4cnc5[nH]ccc5c34)CC2)cn1` [compound 214, 1-{1-[(6-chloropyridin-3-yl)methyl]piperidin-4-yl}-7H-pyrrolo[3,2-e][1,2,3]triazolo[1,5-c]pyrimidine]: the IC50 stood at 0.29 µM against Tyk2, 0.013 µM on JAK2 (ATP 100 μM), 0.04 µM against JAK3 and 0.0026 µM on JAK1.
In the same order, the values of `C(=C\c1ccco1)/CN1CCC(c2nnn3cnc4[nH]ccc4c23)CC1` [compound 215, (E)-1-{1-[3-(furan-2-yl)allyl]piperidin-4-yl}-7H-pyrrolo[3,2-e][1,2,3]triazolo[1,5-c]pyrimidine] are > 1 µM, 0.25 µM, > 1 µM and 0.026 µM.
`CN1CCC(c2nnn3cnc4[nH]ccc4c23)CC1` [compound 216, 1-(1-methylpiperidin-4-yl)-7H-pyrrolo[3,2-e][1,2,3]triazolo[1,5-c]pyrimidine]: the IC50 on Tyk2 was > 1 µM; at JAK2, > 1 µM; at JAK3, > 1 µM; on JAK1, 0.38 µM.
For the compound `Clc1n[nH]c2ccc(CN3CCC(c4nnn5cnc6[nH]ccc6c45)CC3)cc12` [compound 217, 1-{1-[(3-chloro-1H-indazol-5-yl)methyl]piperidin-4-yl}-7H-pyrrolo[3,2-e][1,2,3]triazolo[1,5-c]pyrimidine], the IC50 is > 1 µM against Tyk2, 0.18 µM against JAK2 (ATP 100 μM), 0.38 µM against JAK3 and 0.08 µM against JAK1.
In the same order, the values of `c1cnc2cc(CN3CCC(c4nnn5cnc6[nH]ccc6c45)CC3)ccc2n1` [compound 218, 1-[1-(quinoxalin-6-ylmethyl)piperidin-4-yl]-7H-pyrrolo[3,2-e][1,2,3]triazolo[1,5-c]pyrimidine] are > 1 µM, 0.14 µM, > 1 µM and 0.028 µM.
The corresponding values for `c1cc2c(ncn3nnc(C4CCN(Cc5cocn5)CC4)c23)[nH]1` [compound 219, 4-{[4-(7H-pyrrolo[3,2-e][1,2,3]triazolo[1,5-c]pyrimidin-1-yl)piperidin-1-yl]methyl}oxazole] are 0.97 µM, 0.081 µM, 0.62 µM and 0.039 µM.
For `FC(F)Oc1ccc(CN2CCC(c3nnn4cnc5[nH]ccc5c34)CC2)cc1` [compound 220, 1-{1-[4-(difluoromethoxy)benzyl]piperidin-4-yl}-7H-pyrrolo[3,2-e][1,2,3]triazolo[1,5-c]pyrimidine], the IC50 is > 1 µM at Tyk2, 0.086 µM against JAK2 (ATP 100 μM), 0.62 µM on JAK3 and 0.013 µM against JAK1.
The corresponding values for `c1cn(-c2ccc(CN3CCC(c4nnn5cnc6[nH]ccc6c45)CC3)cc2)cn1` [compound 221, 1-{1-[4-(1H-imidazol-1-yl)benzyl]piperidin-4-yl}-7H-pyrrolo[3,2-e][1,2,3]triazolo[1,5-c]pyrimidine] are > 1 µM, 0.09 µM, > 1 µM and 0.018 µM.
In the same order, the values of `N#Cc1ccc(CN2CCC(c3nnn4cnc5[nH]ccc5c34)CC2)cc1F` [compound 222, 4-{[4-(7H-pyrrolo[3,2-e][1,2,3]triazolo[1,5-c]pyrimidin-1-yl)piperidin-1-yl]methyl}-2-fluorobenzonitrile] are 0.77 µM, 0.033 µM, 0.32 µM and 0.0035 µM.
The corresponding values for `Fc1cc(C(F)(F)F)cc(F)c1CN1CCC(c2nnn3cnc4[nH]ccc4c23)CC1` [compound 224, 1-{1-[2,6-difluoro-4-(trifluoromethyl)benzyl]piperidin-4-yl}-7H-pyrrolo[3,2-e][1,2,3]triazolo[1,5-c]pyrimidine] are 0.95 µM, 0.012 µM, 0.43 µM and 0.002 µM.
Take `O=C1COc2ccc(CN3CCC(c4nnn5cnc6[nH]ccc6c45)CC3)cc2N1` [compound 225, 6-{[4-(7H-pyrrolo[3,2-e][1,2,3]triazolo[1,5-c]pyrimidin-1-yl)piperidin-1-yl]methyl}-2H-benzo[b][1,4]oxazin-3(4H)-one]: the IC50 at Tyk2 is > 1 µM; at JAK2 (ATP 100 μM), 0.2 µM; against JAK3, > 1 µM; on JAK1, 0.021 µM.

The values are drawn from patent US9216999B2, “Substituted pyrrolo[2,3-h][1,6]naphthyridines and compositions thereof as JAK inhibitors” (priority 2011, dated 2015).
